Test [1] in a line: DPPH radical scavenging assay. It is filed as biochemical. The note with it: DPPH in ethanol, 30 min. The protocol: Ascorbic acid was serially diluted to a concentration range of 0.78–100 µg/mL. Ethanol (10%) was used as a blank. Ninety microliters of a […] DPPH (2,2-diphenyl-1-picrylhydrazyl) in ethanol were added to each well. The plates were incubated for 30 min and covered in a layer of foil. Color controls (negative controls) were prepared in the exact same manner as above, but distilled water was added to each well instead of DPPH. The absorbances were measured at a wavelength of 515 nm using a BIO-TEK Power-Wave XS multiplate reader (BIO-TEK Instruments, Winooski, VT, USA). From the absorbances an IC50 value was determined.

Test [2] is described as follows: Nitric oxide scavenging assay (nitroprusside, Griess reagent). The format is biochemical. The settings on record: 10 mM nitroprusside, 90 min, read-out: NO IC50. The protocol: Ethanol (10%) was used as a blank. Nitroprusside (50 μL) at a concentration of 10 mM was added to all the wells. The plates were incubated for 90 min at room temperature. After incubation, Griess reagent (100 μL) was added to all the wells, except for the color controls (negative controls) where instead distilled water was added. The absorbances were read at a wavelength of 546 nm using a BIO-TEK Power-Wave XS multiplate reader. From the absorbances an IC50 value was determined.

Regarding `O=C1O[C@H]([C@@H](O)CO)C(O)=C1O` [Ascorbic acid, reference compound], the 50% inhibitory concentration (IC50) turned out to be 43.7 ± 1.12 µM in test [1] and 144 ± 3.3 µM in test [2].

For orientation: IC50 means the point on the concentration scale where inhibition reaches its midpoint.

(Values after paper PMC6600574 (Molecules, 2019).)
